Reference: patent publication US10487117B2, “Antimicrobial peptide for nosocomial infections” (priority 2015, dated 2019)
Values after ≈ are worked out from the molar mass of the structure shown. Residues, ends and D or L forms follow the SMILES beside them.

Key:
[1] = tested on: established P. aeruginosa biofilms; assay: SYTOX Green membrane permeabilization assay on biofilm; format: cell-based, Pseudomonas aeruginosa; details: maximum percentage at final incubation time, 10% Triton X-100 reference
Procedure: Membrane permeabilization was followed using the method SYTOX Green Fluorescence membrane permeabilization assay. In the planktonic assay, bacterial cells were grown at 37° C. to an OD600=0.2, centrifuged at 5000×g for 5 min, and resuspended in 1×PBS to an OD600=0.2. An aliquot of 200 μl was then transferred to a microtiter plate. For biofilm assay, 24 h formed P. aeruginosa biofilm in a 96-well microtiter plate were washed three times with sterile PBS. SYTOX Green was added to a final concentration of 1 μM and incubated 15 min in darkness. Changes in the fluorescence were continuously recorded after addition of a serially diluted protein/peptides from 50 to 0.1 μM in a Victor3 plate reader. The peptide concentration required to achieve half of total and total membrane permeabilization achieved after 40 min was estimated from nonlinear regression analysis as previously described (Pulido D. et al. Antimicrob Agents Chemother 2013). A maximum reference value was taken for Triton X-100 at 10%.
(§1) Thereupon, the antimicrobial mechanism of action of the RNase 3 derived peptide on P. aeruginosa biofilms was further characterized with the depolarization and permeabilization assays. As applied for the P. aeruginosa planktonic culture, the fluorescent DisC3(5) assay was also used here in order to monitor the depolarization activity of the studied protein and peptides against established biofilms. Therefore, we have measured the half depolarization action (ED50), and the total depolarization activity expressed as a percentage (Table 7). […] Similar results were obtained for the Sytox Green permeabilization assay, where the total permeabilization effect was hindered for all the AMPs tested, and between two to ten times higher concentrations were required to achieve half of the biofilm cell permeabilizing effect in comparison to the planktonic cells.

planktonic P. aeruginosa = assay: Minimum inhibitory concentration (MIC100) assay; format: cell-based, Pseudomonas aeruginosa; details: 4 h at 37° C., mean ± SEM, max 50 μM
Procedure: First the peptide ability to inhibit the proliferation of P. aeruginosa cells was assessed by determining the minimum inhibitory concentration (MIC100).
MIC100 of each protein/peptide was determined as described (Torrent M. et al. 2012). Bacteria were incubated at 37° C. overnight in Luria-Bertani broth (LB) and diluted to give approximately 5×10^5 CFU/mL. In each assay protein/peptide serially diluted from 50 to 0.2 μM in 10 mM sodium phosphate, 0.1 M NaCl, buffer pH 7.5 were added to 100 μl bacteria dilution and incubated for 4 h at 37° C. Subsequently, samples were plated onto Petri dishes and incubated at 37° C. overnight. MIC100 values were determined as function of the total growth inhibition by the protein and peptides, from two independent experiments performed in triplicate.

[2] = tested on: established P. aeruginosa biofilms; assay: DiSC3(5) membrane depolarization assay on biofilm; format: cell-based, Pseudomonas aeruginosa; details: maximum percentage at final incubation time, 10% Triton X-100 reference
Procedure: Membrane depolarization was followed using the method described earlier (Torrent M. et al. 2008). Briefly, bacterial cells were grown at 37° C. to an OD600=0.2, centrifuged at 5000×g for 7 min, washed with 5 mM Hepes at pH 7.2 containing 20 mM glucose, and resuspended in 5 mM Hepes-KOH, 20 mM glucose, and 100 mM KCl at pH 7.2 to an OD600=0.05 and 200 μl were transferred to a microtiter plate for planktonic assays. For biofilm assay, 24 h formed P. aeruginosa biofilm in a 96-well microtiter plate were washed three times with sterile PBS. Afterwards P. aeruginosa biofilms were washed with 5 mM Hepes at pH 7.2 containing 20 mM glucose, and rinsed in 5 mM Hepes-KOH, 20 mM glucose, and 100 mM KCl at pH 7.2. In both cases, DiSC3(5) was added to a final concentration of 0.4 μM and changes in the fluorescence were continuously recorded after addition of peptides at 10 μM in a Victor3 plate reader. A maximum reference value for total depolarization is calculated for Triton X-100 at 10%. Alternatively, changes in the fluorescence were continuously recorded after addition of a serially diluted protein/peptides from 50 to 0.1 μM. The peptide concentration required to achieve half of total and total membrane depolarization after 40 min incubation time was estimated from nonlinear regression analysis as previously described (Torrent M. et al. 2010)
as §1

[3] = tested on: LPS (lipopolysaccharides) from P. aeruginosa; assay: LPS binding assay, BODIPY TR cadaverine (BC) displacement; design: species or system Pseudomonas aeruginosa; details: 100% = total displacement of the dye; mean ± SEM
Procedure: Following, LPS binding affinity was monitored by a fluorometric assay which measures the competitive displacement of a cadaverine fluorescent probe (BC) by the protein and peptides. The half LPS binding affinity (ED50), defined as the AMP concentration needed to achieve half of BC displacement, and the total LPS binding affinity, expressed as a percentage, were determined (Table 4). Interaction with negatively charged surfaces of bacteria is the first step for cationic peptides to reach the bacterial membranes and exert their antimicrobial action.
LPS binding was assessed using the fluorescent probe BODIPY TR cadaverine (BC) as previously described (Pulido D. et al. Febs J 2013). BC binds strongly to native LPS, specifically recognizing the lipid A portion. When a protein that interacts with LPS is added, BC is displaced from the complex and its fluorescence is increased, decreasing its occupancy factor. LPS-binding assays were carried out in a 10 mM Hepes buffer at pH 7.5. The displacement assay was performed using a 96 well microtiter plate containing stirred mixture of either LPS (10 μg/mL) and BC (10 μM). Protein/peptides were serially diluted from 10 to 0.1 μM. Fluorescence measurements were performed on a Victor3 plate reader (Perkin Elmer, Waltham, Mass.). The protein/peptide concentration required to achieve half of total and total BC displacement was estimated from nonlinear regression analysis as previously described (Wood S. J. et al. 2004)

## CC[C@H](C)[C@H](NC(=O)[C@H](CCCCN)NC(=O)[C@H](CCC(=O)O)NC(=O)[C@H](CCCCN)NC(=O)[C@H](CO)NC(=O)[C@H](CCCCN)NC(=O)[C@H](CCCNC(=N)N)NC(=O)[C@H](Cc1ccccc1)NC(=O)[C@H](Cc1ccccc1)NC(=O)[C@H](CC(=O)O)NC(=O)CNC(=O)[C@H](CC(C)C)NC(=O)[C@@H](N)CC(C)C)C(=O)NCC(=O)N[C@@H](CCCCN)C(=O)N[C@@H](CCC(=O)O)C(=O)N[C@@H](Cc1ccccc1)C(=O)N[C@@H](CCCCN)C(=O)N[C@@H](CCCNC(=N)N)C(=O)N[C@H](C(=O)N[C@H](C(=O)N[C@@H](CCC(N)=O)C(=O)N[C@@H](CCCNC(=N)N)C(=O)N[C@H](C(=O)N[C@@H](CCCCN)C(=O)N[C@@H](CC(=O)O)C(=O)N[C@@H](Cc1ccccc1)C(=O)N[C@@H](CC(C)C)C(=O)N[C@@H](CCCNC(=N)N)C(=O)N[C@@H](CC(N)=O)C(=O)N[C@@H](CC(C)C)C(=O)N[C@H](C(=O)N1CCC[C@H]1C(=O)N[C@@H](CCCNC(=N)N)C(=O)N[C@H](C(=O)N[C@@H](CCC(=O)O)C(=O)N[C@@H](CO)C(N)=O)[C@@H](C)O)C(C)C)[C@@H](C)CC)C(C)C)[C@@H](C)CC [LL-37]
[1]
  Permeabilization Mean % ± SEM: 24.21 ± 3.71%
Planktonic P. aeruginosa
  MIC100: 6.00 ± 0.05 µM (≈ 27 µg/mL)
[2]
  Depolarization Mean % ± SEM: 31.85 ± 1.15%

## CC[C@H](C)[C@H](NC(=O)CNC(=O)[C@@H](NC(=O)[C@H](CCCCN)NC(=O)[C@H](CCCCN)NC(=O)[C@H](Cc1ccccc1)NC(=O)[C@H](CC(C)C)NC(=O)[C@H](CCCCN)NC(=O)[C@H](Cc1c[nH]c2ccccc12)NC(=O)[C@@H](N)CCCCN)[C@@H](C)CC)C(=O)NCC(=O)N[C@@H](C)C(=O)N[C@H](C(=O)N[C@@H](CC(C)C)C(=O)N[C@@H](CCCCN)C(=O)N[C@H](C(=O)N[C@@H](CC(C)C)C(=O)N[C@H](C(=O)N[C@H](C(=O)NCC(=O)N[C@@H](CC(C)C)C(=O)N1CCC[C@H]1C(=O)N[C@@H](C)C(=O)N[C@@H](CC(C)C)C(=O)N[C@H](C(=O)N[C@@H](CO)C(N)=O)[C@@H](C)CC)[C@@H](C)O)[C@@H](C)O)C(C)C)C(C)C [CA-M]
[1]
  Permeabilization Mean % ± SEM: 23.01 ± 1.13%
Planktonic P. aeruginosa
  MIC100: 6.00 ± 0.05 µM (≈ 16.8 µg/mL)
[2]
  Depolarization Mean % ± SEM: 39.09 ± 2.46%
[3]
  LPS binding %max (percentage of maximum displacement): 69.16 ± 6.23%

## CC[C@H](C)[C@H](NC(=O)[C@H](CCC(N)=O)NC(=O)CN)C(=O)N[C@H](C(=O)N[C@@H](CC(N)=O)C(=O)N[C@@H](CC(C)C)C(=O)N[C@@H](CCCCN)C(=O)N[C@@H](C)C(=O)N[C@@H](CO)C(=O)N[C@@H](CC(C)C)C(=O)N[C@@H](CC(=O)O)C(=O)N[C@@H](CC(C)C)C(=O)N[C@@H](CC(C)C)C(N)=O)[C@@H](C)CC [GL-13, GQIINLKASLDLL-NH2] (H-GQIINLKASLDLL-NH2)
Planktonic P. aeruginosa
  MIC100: >50 µM
[3]
  LPS binding %max (percentage of maximum displacement): 44.37 ± 3.84%
